Results reported in patent publication US20180353445A1, “METHODS AND COMPOSITIONS RELATING TO PROTEASOME INHIBITOR RESISTANCE” (Whitehead Institute for Biomedical Research, priority 2017, published 2018).
Entries after “also recorded” stand apart in the source; their conditions may differ.

Assays:
[1] = tested on: relapsed multiple myeloma; assay: Analysis of phase 2/3 bortezomib clinical trials in relapsed multiple myeloma stratified by 19S subunit expression; type: in vivo, human
Experimental: (All patients were treated with bortezomib.) (FIG. 15B) Reduced expression of 19S subunit expression is correlated with poor tumor suppression response to bortezomib in patients with relapsed myeloma enrolled in phase 2 and phase 3 clinical trials of bortezomib. Plotted is the time to relapse for patients that relapsed that were either treated with bortezomib, stratified by reduced expression of at least one subunit of the 19S proteasome complex or the dexamethasone treated group as a control.
We analyzed gene expression data from 135 patients with relapsed multiple myeloma who participated in Phase II or III trials of bortezomib (˜2007; Mulligan, G., Mitsiades, et al. (2007) Gene expression profiling and correlation with outcome in clinical trials of the proteasome inhibitor hortezomib. Blood 109, 3177-3188) and determined the sigma score for each cancer. […]
Methods details: re-treatment gene expression data from relapsed multiple myeloma patients undergoing clinical trials with bortezomib were downloaded from GSE9782 (34). […] Sigma scores were calculated from all probes. […] P-value was calculated using Wilcoxon test.

[2] = biological target: β5-subunit of the proteasome (Homo sapiens, UniProt P28074); details: cited from earlier work
[3] = tested on: HepG2 cells; assay: Cell viability assay (resazurin), HepG2 cells with shRNA knockdown of proteasome subunits vs control; type: cell-based, human
From the text: FIGS. 2A-2F: Reducing expression of 19S subunits increases the levels of active 20S proteasomes and protects cancer cells from proteasome (FIG. 2A) HepG2 cells were infected with 80 shRNAs targeting 20 different subunits of the proteasome and 10 control shRNAs. Infected cells were then exposed to […] bortezomib and cell number was examined 4 days later. The plot represents the average (+/−SEM) of four different hairpins targeting the indicated proteasome subunits and their relative cell number following bortezomib treatment. 19S subunits are depicted with orange bars, the control with a blue bar and 20S subunits with green bars. […] (FIG. 2C) The relative cell number of cells harboring a control shLacZ or each of 4 individual shRNAs targeting shPSMD2 was analyzed 4 days after addition of the indicated concentrations of bortezomib. (FIG. 2D) HepG2 cells stably expressing four different shRNAs targeting the PSMD2 subunit and a control shRNA (lacZ) were analyzed by western blot for the indicated proteins 24 hours with or without bortezomib treatment. […] Proteasome complex levels were detected by immunoblot analysis and 20S proteasome activity by measuring the hydrolysis of Suc-LLVY-AMC by substrate overlay assays. * p<0.05 **p<0.01. […]

[4] = tested on: MCF7 and HEK293 cells; assay: Cell viability with glucose or galactose as the carbon source; type: cell-based, human; details: 10 mM glucose or 10 mM galactose
Experimental: Cells were treated with increasing concentrations of elesclomol in the presence of either Glucose or Galactose as the carbon source (FIG. 40A). The presence of Galactose will induce a mitochondrial dependent metabolism (FIGS. 40B-40C, Gohil et al., Nature Biotechnology 28, 249-255 (2010)).
The sensitivity of cells to different chemical isoforms of elesclomol was also assessed. […] Removing even one substantially impairs the ability of the molecule to induce toxicity (FIG. 41B).
Cell culture methods—147D, Lo19S T47D, K562 and 293T-HS cells were cultured in RPMI-1640 medium supplemented with 10% fetal bovine serum; HEK293, HEK293T and MCF-7 cells were cultured in Dulbecco's modified Eagle's medium supplemented with 10% fetal bovine serum. For the glucose, galactose experiments media lacking glucose was supplemented with dialyzed serum and either 10 mM Glucose or 10 mM galactose.
Cell viability—where indicated relative cell number following different drug treatment was conducted by plating cells at 1000 cells/well in 384 well plates. Indicated concentrations of compounds were added 24 hour after plating at least in triplicate for each condition. Viability was measured 72 hours after drug addition using cell titer-glo (Promega) according to manufactures protocol. […]

Structure (SMILES) | time to progression of patients with reduced 19S subunit expression vs patients without ([1]; 34 patients, p-value=0.0086) | effectiveness in patients with reduced expression of 19S proteasome subunit(s) ([1]; vs dexamethasone control) | potency of inhibition of the β5-subunit [2] | proliferation of control cells ([3]; 12 nM, control HepG2 cells) | increase of EC50 values in cell lines with shRNA-reduced PSMD2 vs parental line ([3]; HepG2, four shRNAs targeting PSMD2, 4 days) | sensitivity of cells in galactose (mitochondrial metabolism, Hi-OXPHOS) versus glucose (glycolytic) [4]
CC(C)C[C@H](NC(=O)[C@H](Cc1ccccc1)NC(=O)c1cnccn1)B(O)O [bortezomib] | shortened time to progression | no significant effectiveness over the dexamethasone control | low nanomolar potency | completely inhibited | three to six-fold | –
CN(NC(=O)CC(=O)NN(C)C(=S)c1ccccc1)C(=S)c1ccccc1 [elesclomol] | – | – | – | – | – | much more sensitive; also recorded: toxicity is enhanced
